Results as given in paper PMC11790914, “Chemogenomics for steroid hormone receptors (NR3)” (Communications Chemistry, 2025).
Where “and” joins values, the source holds several entries; their conditions need not be identical. Identical values can stand only once. Like-named read-outs stand apart in the source and are kept apart here.

Experiments:
[1] = target: T1, BRPF1 (Homo sapiens, UniProt P55201); assay: Liability panel screening by DSF: BRPF1; type: binding; conditions: read-out: Mean ΔTM BRPF1
T1 construct: This panel comprised ten highly ligandable kinases and bromodomains; made in house
T1 sequence (P55201 628-732 limits assumed): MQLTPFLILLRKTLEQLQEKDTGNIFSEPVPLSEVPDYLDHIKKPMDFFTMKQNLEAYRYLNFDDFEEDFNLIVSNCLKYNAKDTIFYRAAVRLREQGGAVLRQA
Outline: (§1)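 Thermal shift: in-house recombinant protein at 2 µM in 10 mM HEPES pH 7.5 with 500 mM NaCl, SYPRO Orange 1:1000, heated at 3 °C/min to 85 °C in technical duplicates. Tm is the Boltzmann inflection point, reported as ∆Tm in K.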

[2] = tested on: ATF6 activity in Hela ATF6 reporter cells; assay: Endoplasmic reticulum stress assay (ATF6 Renilla luciferase reporter, tunicamycin); type: cell-based; conditions: for activity at 1 µM: Homo sapiens, HeLa, single replicates n=1 to n=5, read-out: ER stress [rel. ATF6 activity]
Outline: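 HeLa ATF6 Renilla reporter cells were pretreated 4 h with compounds in 0.1% DMSO, then stimulated with tunicamycin (100 ng/mL) for 18 h. Renilla luminescence (DualGlo) was normalized to 0.1% DMSO control; five independent experiments.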

[3] = target: T2, CDK2 (Homo sapiens, UniProt P24941); assay: Liability panel screening by DSF: CDK2; type: binding; conditions: read-out: Mean ΔTM CDK2
T2 construct: made in house
Outline: as §1

[4] = target: T3, FGFR3 (Homo sapiens, UniProt P22607); assay: Liability panel screening by DSF: FGFR3; type: binding; conditions: read-out: Mean ΔTM FGFR3
T3 construct: made in house
T3 sequence (P22607 23-806, species assumed): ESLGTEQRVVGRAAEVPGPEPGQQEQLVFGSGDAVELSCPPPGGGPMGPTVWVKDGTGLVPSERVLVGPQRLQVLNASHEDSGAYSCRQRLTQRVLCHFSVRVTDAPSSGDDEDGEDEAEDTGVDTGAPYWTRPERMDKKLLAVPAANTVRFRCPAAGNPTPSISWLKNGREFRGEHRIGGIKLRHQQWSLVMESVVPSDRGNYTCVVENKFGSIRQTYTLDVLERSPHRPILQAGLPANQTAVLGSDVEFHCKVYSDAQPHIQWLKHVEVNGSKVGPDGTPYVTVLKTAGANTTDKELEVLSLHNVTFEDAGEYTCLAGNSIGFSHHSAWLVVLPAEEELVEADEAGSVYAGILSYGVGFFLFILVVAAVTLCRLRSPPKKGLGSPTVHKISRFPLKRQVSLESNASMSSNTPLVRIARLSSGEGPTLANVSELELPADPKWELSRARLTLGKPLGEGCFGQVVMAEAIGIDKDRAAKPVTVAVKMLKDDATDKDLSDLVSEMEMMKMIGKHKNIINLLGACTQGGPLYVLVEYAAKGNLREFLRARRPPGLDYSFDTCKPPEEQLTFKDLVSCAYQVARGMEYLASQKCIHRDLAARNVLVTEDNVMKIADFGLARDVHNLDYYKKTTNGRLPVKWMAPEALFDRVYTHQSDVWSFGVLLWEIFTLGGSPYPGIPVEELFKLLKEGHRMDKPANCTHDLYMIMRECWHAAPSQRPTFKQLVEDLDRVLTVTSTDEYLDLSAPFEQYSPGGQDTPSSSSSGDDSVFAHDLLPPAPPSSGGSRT
Outline: as §1

[5] = tested on: HEK293T cells; assay: Cytotoxicity: growth-rate (change in confluence over 24 h); conditions: 1 µM, normalized to 0.1% DMSO control, single replicates (n=1...)
[6] = target: T4, CSNK1D (Homo sapiens, UniProt P48730); assay: Liability panel screening by DSF: CSNK1D; type: binding; conditions: read-out: Mean ΔTM CSNK1D
T4 construct: made in house
T4 sequence (P48730 whole entry, species assumed): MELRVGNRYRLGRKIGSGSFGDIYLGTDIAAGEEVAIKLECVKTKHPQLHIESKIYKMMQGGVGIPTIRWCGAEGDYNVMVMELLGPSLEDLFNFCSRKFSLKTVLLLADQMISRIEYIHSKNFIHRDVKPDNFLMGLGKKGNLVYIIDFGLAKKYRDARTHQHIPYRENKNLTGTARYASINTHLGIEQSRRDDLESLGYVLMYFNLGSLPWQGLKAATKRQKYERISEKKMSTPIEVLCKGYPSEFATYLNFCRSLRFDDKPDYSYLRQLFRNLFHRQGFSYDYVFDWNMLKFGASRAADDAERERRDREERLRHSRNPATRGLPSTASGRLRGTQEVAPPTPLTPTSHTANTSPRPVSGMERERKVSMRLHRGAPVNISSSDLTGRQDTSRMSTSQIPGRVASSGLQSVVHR
Outline: as §1

[7] = tested on: HEK293T cells; assay: Cytotoxicity: metabolic activity (WST-8 / CCK-8 assay); conditions: 1 µM; HEK293T, 24 h; WST-8; normalized to 0.1% DMSO; single replicates
[8] = target: T5, AURKA (Homo sapiens, UniProt O14965); assay: Liability panel screening by DSF: AURKA; type: binding; conditions: read-out: Mean ΔTM AURKA
T5 construct: made in house
T5 sequence (O14965 1-403): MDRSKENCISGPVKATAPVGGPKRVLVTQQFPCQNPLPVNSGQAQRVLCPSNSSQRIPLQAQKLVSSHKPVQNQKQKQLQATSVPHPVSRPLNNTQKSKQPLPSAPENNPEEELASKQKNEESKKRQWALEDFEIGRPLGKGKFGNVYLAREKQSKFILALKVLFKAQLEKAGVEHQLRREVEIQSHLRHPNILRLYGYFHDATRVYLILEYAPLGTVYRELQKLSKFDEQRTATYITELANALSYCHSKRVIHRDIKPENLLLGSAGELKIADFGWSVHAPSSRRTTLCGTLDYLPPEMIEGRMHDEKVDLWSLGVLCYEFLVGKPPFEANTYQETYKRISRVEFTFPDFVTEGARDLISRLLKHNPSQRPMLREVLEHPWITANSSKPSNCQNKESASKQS
Outline: as §1

[9] = target: T6, ABL1 (Homo sapiens, UniProt P00519); assay: Liability panel screening by DSF: ABL1; type: binding; conditions: read-out: Mean ΔTM ABL1
T6 construct: made in house
T6 sequence (P00519 whole entry, species assumed): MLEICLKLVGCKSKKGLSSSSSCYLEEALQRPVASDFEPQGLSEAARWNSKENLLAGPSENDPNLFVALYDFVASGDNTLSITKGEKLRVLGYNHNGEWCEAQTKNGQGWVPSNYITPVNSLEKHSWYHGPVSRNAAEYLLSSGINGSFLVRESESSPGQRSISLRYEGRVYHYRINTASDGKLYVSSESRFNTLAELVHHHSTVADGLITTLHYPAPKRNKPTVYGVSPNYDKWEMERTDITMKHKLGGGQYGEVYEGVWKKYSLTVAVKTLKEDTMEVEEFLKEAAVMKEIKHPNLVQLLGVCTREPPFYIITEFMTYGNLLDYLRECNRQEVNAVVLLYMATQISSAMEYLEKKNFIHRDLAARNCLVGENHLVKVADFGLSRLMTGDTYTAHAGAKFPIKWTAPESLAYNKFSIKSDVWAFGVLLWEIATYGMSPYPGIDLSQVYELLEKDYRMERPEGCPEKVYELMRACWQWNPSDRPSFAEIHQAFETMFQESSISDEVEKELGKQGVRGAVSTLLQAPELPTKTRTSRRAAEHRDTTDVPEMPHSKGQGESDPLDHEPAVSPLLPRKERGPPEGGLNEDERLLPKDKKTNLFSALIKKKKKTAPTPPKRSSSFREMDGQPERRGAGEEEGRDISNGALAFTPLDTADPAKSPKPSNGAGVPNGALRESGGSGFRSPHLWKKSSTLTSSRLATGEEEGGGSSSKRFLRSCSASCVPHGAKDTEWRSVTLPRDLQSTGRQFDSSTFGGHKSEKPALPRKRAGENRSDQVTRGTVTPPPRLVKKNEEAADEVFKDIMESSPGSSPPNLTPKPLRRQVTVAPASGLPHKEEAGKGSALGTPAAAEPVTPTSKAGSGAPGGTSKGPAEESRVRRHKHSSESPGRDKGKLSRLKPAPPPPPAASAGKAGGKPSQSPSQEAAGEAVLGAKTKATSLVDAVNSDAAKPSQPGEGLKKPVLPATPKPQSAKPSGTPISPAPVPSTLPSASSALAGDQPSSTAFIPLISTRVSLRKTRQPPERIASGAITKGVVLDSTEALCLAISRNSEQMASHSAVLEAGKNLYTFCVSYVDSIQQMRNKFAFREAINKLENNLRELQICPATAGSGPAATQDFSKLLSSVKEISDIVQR
Outline: as §1

[10] = target: T7, BRD4 (Homo sapiens, UniProt O60885); assay: Liability panel screening by DSF: BRD4; type: binding; conditions: read-out: Mean ΔTM BRD4
T7 construct: This panel comprised ten highly ligandable kinases and bromodomains; made in house
Outline: as §1

[11] = target: T8, GSK3B (Homo sapiens, UniProt P49841); assay: Liability panel screening by DSF: GSK3B; type: binding; conditions: read-out: Mean ΔTM GSK3B
T8 construct: made in house
T8 sequence (P49841 whole entry, species assumed): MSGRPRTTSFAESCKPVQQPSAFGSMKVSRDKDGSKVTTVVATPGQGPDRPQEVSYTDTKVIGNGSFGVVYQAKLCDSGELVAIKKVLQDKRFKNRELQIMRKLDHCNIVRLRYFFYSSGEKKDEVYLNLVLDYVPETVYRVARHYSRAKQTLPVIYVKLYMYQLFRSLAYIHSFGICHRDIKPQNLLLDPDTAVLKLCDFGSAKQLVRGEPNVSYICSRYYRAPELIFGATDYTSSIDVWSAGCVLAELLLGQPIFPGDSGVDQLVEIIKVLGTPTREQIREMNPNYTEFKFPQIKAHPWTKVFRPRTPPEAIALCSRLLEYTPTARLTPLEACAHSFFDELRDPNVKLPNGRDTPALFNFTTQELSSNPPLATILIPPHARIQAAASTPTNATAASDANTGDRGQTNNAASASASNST

[12] = tested on: HEK293T cells; assay: Cytotoxicity: necrosis induction (red fluorescent dye for permeable plasma membranes); type: cell-based; conditions: 1 µM, 24 h, necrotic cell count normalized to 0.1% DMSO, single replicates;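 further: compounds applied in DMEM high glucose with 0.1% FCS and 0.1% DMSO, necrotic HEK293T cells counted by red staining of cells whose plasma membranes had become permeable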
[13] = tested on: HEK293T cells; assay: Cytotoxicity: apoptosis induction (caspase-3/7 DEVD fluorogenic DNA dye); conditions: 1 µM; HEK293T, 24 h; apoptotic cell count normalized to 0.1% DMSO; single replicates
[14] = tested on: Gal4-VP16; type: cell-based; conditions: 1 µM; vs. DMSO ctrl; single replicates n=1-3
[15] = tested on: NR3C4 (AR); conditions: read-out: Potency [nM] IC50, NR3C4 (AR); cited from earlier work
[16] = tested on: NF-κB activity in HEK293 NF-κB reporter cells; assay: NF-kB activity assay (GFP reporter, ionomycin/PMA); type: cell-based; conditions: for Mean NFκB response: n=3; for NF-κB activity (inflammatory response to ionomycin/PMA): HEK293 NF-κB reporter cells, compounds at recommended concentrations, imaged over 24 h, n = 3
Outline: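 HEK293 NF-κB GFP reporter cells given compound in 0.1% DMSO for 4 h, then stimulated with ionomycin 100 ng/mL plus PMA 10 ng/mL. Imaged every 90 min over 24 h; GFP-positive cell count normalized to confluence, three independent biological replicates.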

[17] = target: T9, TRIM24 (Homo sapiens, UniProt O15164); assay: Liability panel screening by DSF: TRIM24; type: binding; conditions: read-out: Mean ΔTM TRIM24
T9 construct: This panel comprised ten highly ligandable kinases and bromodomains; made in house
T9 sequence (O15164 899-1004 limits assumed): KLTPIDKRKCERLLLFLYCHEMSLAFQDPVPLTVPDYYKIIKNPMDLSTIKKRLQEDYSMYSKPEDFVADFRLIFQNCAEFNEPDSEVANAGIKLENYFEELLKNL
Outline: as §1

[18] = target: T10, MAPK1 (Homo sapiens, UniProt P28482); assay: Liability panel screening by DSF: MAPK1; type: binding; conditions: DSF, 20 µM, n=2; read-out: Mean ΔTM MAPK1
T10 construct: made in house
T10 sequence (P28482 whole entry, species assumed): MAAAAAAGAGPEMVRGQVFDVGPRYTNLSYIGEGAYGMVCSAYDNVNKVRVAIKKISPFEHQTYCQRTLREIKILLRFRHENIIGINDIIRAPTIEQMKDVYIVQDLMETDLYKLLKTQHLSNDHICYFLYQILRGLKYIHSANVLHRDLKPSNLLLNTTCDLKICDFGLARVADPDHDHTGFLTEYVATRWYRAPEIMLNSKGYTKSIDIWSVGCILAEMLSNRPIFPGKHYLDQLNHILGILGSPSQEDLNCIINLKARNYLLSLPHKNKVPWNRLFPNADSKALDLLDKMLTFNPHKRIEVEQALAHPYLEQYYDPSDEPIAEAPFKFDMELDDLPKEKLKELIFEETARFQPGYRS
Outline: as §1

[19] = tested on: NR3A1 (ERα); conditions: of estradiol; cited from earlier work

With N#Cc1ccc([C@H]2CCCC[C@H]2O)cc1C(F)(F)F [PF-998425] the ΔTm at 20 µM ([1]; DSF, 20 µM, n=2) was -0.66 °C, the activity at 1 µM [2] was 87% and the ΔTm at 20 µM ([3]; DSF, 20 µM, n=2) was 0.11 °C. For the same molecule, the ΔTm at 20 µM ([4]; DSF, 20 µM, n=2) was -0.09 °C, the “Growth rate [GR]” value [5] was 0.92 and 1.38 and 1.07 and 1.15 and 0.96 and 0.86 and 0.80 and 0.57 and 1.49 and 3.80 and the ΔTm at 20 µM ([6]; DSF, 20 µM, n=2) was 0.3 °C. For the same molecule, the “Metabolic activity [MA]” value [7] was 1.03 and 0.98 (3×) and 1.06 and 0.99 and 1.07 and 1.00, the ΔTm at 20 µM ([8]; DSF, 20 µM, n=2) was -1.09 °C and the ΔTm at 20 µM ([9]; DSF, 20 µM, n=2) was 0.55 °C. For the same molecule, the ΔTm at 20 µM ([10]; DSF, 20 µM, n=2) was -1.51 °C, the ΔTm at 20 µM ([11]; DSF, 20 µM, n=2) was -0.43 °C and the “Necrosis induction [NI]” value [12] was 0.87 and 1.08 and 0.88 and 1.00. The “Apoptosis induction [AI]” value [13] was 1.04 and 1.14 and 1.23 and 0.96 and 0.64 and 1.74, the “VP16 control [fold reporter gene activity]” value [14] was 1.26 fold reporter gene activity and 1.19 fold reporter gene activity and 1.03 fold reporter gene activity and the IC50 [15] was 43 ± 12 nM. The “Mean NFκB response” value ([16]; 1 µM, 1,5 h) was 2870.31 GFP+-cells/confluence ∙ 1000, the “Mean NFκB response” value ([16]; 1 µM, 4,5 h) was 3725.32 GFP+-cells/confluence ∙ 1000 and the “Mean NFκB response” value ([16]; 1 µM, 7,5 h) was 8899.00 GFP+-cells/confluence ∙ 1000. For the same molecule, the “Mean NFκB response” value ([16]; 1 µM, 10,5 h) was 17651.00 GFP+-cells/confluence ∙ 1000, the “Mean NFκB response” value ([16]; 1 µM, 13,5 h) was 24472.33 GFP+-cells/confluence ∙ 1000 and the “Mean NFκB response” value ([16]; 1 µM, 16,6 h) was 29696.67 GFP+-cells/confluence ∙ 1000. For the same molecule, the “Mean NFκB response” value ([16]; 1 µM, 19,5 h) was 33323.33 GFP+-cells/confluence ∙ 1000, the “Mean NFκB response” value ([16]; 1 µM, 22,5 h) was 35466.67 GFP+-cells/confluence ∙ 1000 and the “Mean NFκB response” value ([16]; 1 µM, 3 h) was 3247.46 GFP+-cells/confluence ∙ 1000. The “Mean NFκB response” value ([16]; 1 µM, 6 h) was 5028.67 GFP+-cells/confluence ∙ 1000, the “Mean NFκB response” value ([16]; 1 µM, 9 h) was 13977.00 GFP+-cells/confluence ∙ 1000 and the “Mean NFκB response” value ([16]; 1 µM, 12 h) was 20998.00 GFP+-cells/confluence ∙ 1000. For the same molecule, the “Mean NFκB response” value ([16]; 1 µM, 15 h) was 27073.33 GFP+-cells/confluence ∙ 1000, the “Mean NFκB response” value ([16]; 1 µM, 18 h) was 31376.67 GFP+-cells/confluence ∙ 1000 and the “Mean NFκB response” value ([16]; 1 µM, 21 h) was 34843.33 GFP+-cells/confluence ∙ 1000. The “Mean NFκB response” value ([16]; 1 µM, 24 h) was 36873.33 GFP+-cells/confluence ∙ 1000, the “NF-κB activity (inflammatory response to ionomycin/PMA)” value [16] was “tended to enhance NF-κB activity” and the ΔTm at 20 µM ([17]; DSF, 20 µM, n=2) was -1.04 °C. It also gave a ΔTm at 20 µM [18] of -0.24 °C.
With CCCc1c(-c2ccc(O)cc2)nn(-c2ccc(O)cc2)c1-c1ccc(O)cc1 [Propylpyrazoletriol] the ΔTm at 20 µM [1] was -2.86 °C, the “ATF6 activity (tunicamycin-induced endoplasmic reticulum stress)” value ([2]; Hela ATF6 reporter cells, tunicamycin 100 ng/mL, 18 h, compounds at recommended concentrations, n = 5) was “failed to reduce ATF6 activity” and the activity at 1 µM [2] was 96%. The ΔTm at 20 µM [3] was -2.26 °C, the “rel. activity from literature, NR3A1 (ERα): % of estradiol” value [19] was 120% and the ΔTm at 20 µM [4] was -0.78 °C. For the same molecule, the “Growth rate [GR]” value [5] was 0.81 and 2.52 and 0.99 and 1.39 and 1.25 and 1.17 and 0.88 and 3.47 and 1.21 and 7.02, the ΔTm at 20 µM [6] was 1.72 °C and the “Metabolic activity [MA]” value [7] was 0.98 (2×) and 1.03 and 0.91 and 0.97 and 0.94 and 1.18 and 1.14. For the same molecule, the ΔTm at 20 µM [8] was 0.0212 °C, the ΔTm at 20 µM [9] was -0.07 °C and the ΔTm at 20 µM [10] was -2.55 °C. For the same molecule, the ΔTm at 20 µM [11] was 0.06 °C, the “Necrosis induction [NI]” value [12] was 1.15 and 0.83 and 0.85 and 0.82 and the “Apoptosis induction [AI]” value [13] was 1.04 and 1.18 and 0.79 and 1.33 and 1.63 and 1.23. For the same molecule, the “Mean NFκB response” value ([16]; 1 µM, 1,5 h) was 3210.54 GFP+-cells/confluence ∙ 1000, the “Mean NFκB response” value ([16]; 1 µM, 4,5 h) was 4272.75 GFP+-cells/confluence ∙ 1000 and the “Mean NFκB response” value ([16]; 1 µM, 7,5 h) was 9949.66 GFP+-cells/confluence ∙ 1000. For the same molecule, the “Mean NFκB response” value ([16]; 1 µM, 10,5 h) was 19765.59 GFP+-cells/confluence ∙ 1000, the “Mean NFκB response” value ([16]; 1 µM, 13,5 h) was 27110.00 GFP+-cells/confluence ∙ 1000 and the “Mean NFκB response” value ([16]; 1 µM, 16,6 h) was 32836.67 GFP+-cells/confluence ∙ 1000. For the same molecule, the “Mean NFκB response” value ([16]; 1 µM, 19,5 h) was 36663.33 GFP+-cells/confluence ∙ 1000, the “Mean NFκB response” value ([16]; 1 µM, 22,5 h) was 39666.67 GFP+-cells/confluence ∙ 1000 and the “Mean NFκB response” value ([16]; 1 µM, 3 h) was 3501.92 GFP+-cells/confluence ∙ 1000. The “Mean NFκB response” value ([16]; 1 µM, 6 h) was 6059.91 GFP+-cells/confluence ∙ 1000, the “Mean NFκB response” value ([16]; 1 µM, 9 h) was 15582.73 GFP+-cells/confluence ∙ 1000 and the “Mean NFκB response” value ([16]; 1 µM, 12 h) was 23751.78 GFP+-cells/confluence ∙ 1000. The “Mean NFκB response” value ([16]; 1 µM, 15 h) was 30496.67 GFP+-cells/confluence ∙ 1000, the “Mean NFκB response” value ([16]; 1 µM, 18 h) was 34710.00 GFP+-cells/confluence ∙ 1000 and the “Mean NFκB response” value ([16]; 1 µM, 21 h) was 37963.33 GFP+-cells/confluence ∙ 1000. For the same molecule, the “Mean NFκB response” value ([16]; 1 µM, 24 h) was 40840.00 GFP+-cells/confluence ∙ 1000, the “NF-κB activity (inflammatory response to ionomycin/PMA)” value [16] was “no impact on NF-κB activity” and the ΔTm at 20 µM [17] was -3.23 °C.
